Patent US10730892B2, “Homoallylamines as formaldehyde-responsive triggers” (The Regents of the University of California, priority 2015, dated 2020)
Several values for one entry are separate records, joined by “and”; a condition that tells them apart may be missing. Equal entries are not always repeated. Where two headings read alike, the source gives them in different places.

Legend:
[1] = for fold increase in fluorescence intensity: 3 h
Experimental: All experiments were performed at 37° C. for 3 h. Time points on graphs a-b are recorded every 15 min. The time points for graphs c-d represent every 30 min.
All buffers used for pH titrations were prepared in deionized water and brought to the appropriate pH with aqueous HCl or NaOH. The buffers used were 50 mM glycine (pH range 2.00-3.50), 50 mM NaOAc (pH range 4.00-5.60), 50 mM MES (pH range 5.60-6.80), 50 mM HEPES (pH range 6.80-8.20), 50 mM Tris (pH range 8.20-9.50) and 50 mM glycine (pH range 9.50-10.40). A 10 mM stock solution of formaldehyde for in vitro titration experiments was prepared by heating a suspension of paraformaldehyde (>88% w/w, 17.6 mg, 0.50 mmol, TCI, lot # NXR2B) in phosphate buffered saline (PBS) buffered to pH 7.4 (50 mL) at 88° C. for 1 hr. The solution was cooled to room temperature and filtered through a 0.22 μm syringe filter (Millex).
(§1) Nuclear magnetic resonance (NMR) spectra were recorded on Varian 400 or 500 MHz spectrometers at 25° C. Chemical shifts are reported in ppm (δ) and are referenced to residual protic peaks. The following abbreviations are used to describe coupling constants: singlet (s), doublet (d), triplet (t), quartet (q), doublet doublet (dd), doublet triplet (dt), doublet quartet (dq), doublet doublet triplet (ddt), multiplet (m), and broad singlet (bs). IR spectra were recorded with a PerkinElmer Spectrum Two infrared (IR) spectrometer. High-resolution mass spectra were acquired with a Waters Q-TOF Ultima ESI mass spectrometer and a Waters Synapt G2-Si ESI/LC-MS mass spectrometer. UV-visible spectra were recorded on a Cary 60 spectrometer. Fluorescence spectra were acquired on a QuantaMaster-400 scanning spectrofluorometer with micro fluorescence quartz cuvettes (Science Outlet). Flow cytometry was performed on a BD Biosciences LSR II (San Jose, Calif., USA), and the data were analyzed as described using FACSDiva software.
In addition to its ability to crosslink biomolecules, FA is cytotoxic through the induction of oxidative stress (Zararsiz et al., Cell Biochem. Fund. 2007, 25:413).

HEK293TN cells = conditions: 5 mM FA, 37° C., 3 hrs
Experimental: as §1
(§2) HEK293TN cells were obtained from Prof. Paul Hergenrother (UIUC, Chemistry) and cultured in phenol-red free Dulbecco's modified eagle medium (DMEM, Corning) supplemented with 10% fetal bovine serum (FBS, Sigma Aldrich), and 1% penicillin/streptomycin (Corning). Neuroscreen-1 cells were obtained from Prof. Kai Zhang (UIUC, Biochemistry) and cultured in Ham's F-12K medium (Sigma Aldrich) supplemented with 15% horse serum (Hyclone), 2.5% fetal bovine serum (FBS, Sigma Aldrich), and 1% penicillin/streptomycin (Corning). Cells were incubated at 37° C. and 5% CO2. One day before imaging, cells were passed and plated on 8-well chambered coverglasses (Lab-Tek) at a density of 40,000 cells per mL (or 20,000 cells per well). Cells would reach 70-80% confluency before imaging. […] Samples of HEK293TN and NS1 cells for flow cytometry were prepared by passaging and seeding each well of a 6-well cluster culture dish (Cyto-One) with 300,000 cells one day before experiments. […] Stained cells were aspirated and serum-free DMEM added. Subsequently, a 10× concentrated FA solution was added to give a final concentration of 1.0 mM. 2.5 mM and 5 mM. After incubation cells with FA, the media was removed and replaced with serum-free DMEM. Finally, cells were trypsinized, pelleted via centrifugation, resuspended in phosphate-buffered saline (PBS) for flow cytometric analysis.

NS1 cells = conditions: 37° C., 3 hrs
Experimental: as §1, §2

[2] = system: Neuroscreen-1 (NS1) cells
Experimental: FIG. 12 depicts live-cell imaging of NS1 cells. […] Cells were irradiated with the 633 nm HeNe laser set at 3% power with a pinhole size of 1 airy unit. The emission was collected between 645 and 800 nm. Scale bar represents 20 μm. Pseudo-coloring represents intensity distribution from highest intensity indicated by white to the lowest intensity designated by black.
FIG. 13 depicts quantification of observed fluorescence intensity by confocal imaging in NS1 cells after incubation with 1 mM, 2.5 mM or 5 mM FA for 1 (light grey bars), 2 (dark grey bars) and 3 h (black bars). A Ham's F-12K vehicle was added to control cells which was normalized to 1 (white bars). […] For each condition, a minimum of 5 images were averaged (n>5). Errors represent standard deviation.
FIG. 20 depicts quantification of data obtained from confocal microscopy images acquired by irradiation of NS1 cells treated with a vehicle control, 0.25 mM and 0.5 mM FA at 37° C. for 3 hrs with the 633 nm HeNe laser. […] For each condition, a minimum of 5 images were averaged (n>5). Errors represent standard deviation.
as §2
Prior to imaging, cells were allowed to recover in FA-free buffer for 30 min. […] Because FA is a powerful fixative, cell viability assays were performed to determine the cytotoxicity of FA under experimental conditions. A dye exclusion protocol was employed, utilizing trypan blue to selectively stain and distinguish dead cells from those that were viable. […] To further verify that the cell populations under investigation were indeed alive, DAPI, a cell permeable nuclear and chromosome counterstain, was employed to identify intact nuclei (FIG. 16).
For example, semicarbazide-sensitive amine oxidase (SSAO) is primarily localized to the plasma membrane (Andres et al., J. Histochem. Cytochem. 2001, 49:209). Thus, both HEK293TN and NS1 cells were costained with ER-Tracker Green, LysoTracker Green DND-26, and MitoTracker Green FM, fluorescent indicators that are known to selectively stain the endoplasmic reticulum, lysosome, and mitochondria, respectively in almost all cell types (FIG. 17A and FIG. 17B).

In the case of `C=CCC(NCc1ccc([N+](=O)[O-])cc1)c1cn(C)c2cc(C)c(C3=C4C=CC(=O)C=C4[Si](C)(C)c4c3cc3c5c4CCCN5CCC3)cc12` (centres unmarked) [FP1], the “fold increase in fluorescence intensity” value ([1]; 1 μM FP1, 0.1 mM FA, PBS pH 7.4, 37° C.) was 3.9 fold, the fold fluorescence increase ([1]; 1 μM FP1, 0.25 mM FA, PBS pH 7.4, 37° C., 3 hrs) was “ca. 7.0 fold” and the “fold increase in fluorescence intensity” value ([1]; 1 μM FP1, 0.5 mM FA, PBS pH 7.4, 37° C.) was 8.5 fold. The “fold increase in fluorescence intensity” value ([1]; 1 μM FP1, 1 mM FA, PBS pH 7.4, 37° C.) was 12.8 fold and 11.6 fold, the “lower limit of detection of FP1” value ([1]; FA, after 3 hrs incubation at 37° C.) was 0.01 mM and the “fold turn-on, median APC-A fluorescence intensity (flow cytometry)” value (HEK293TN cells) was ~2.5 fold. For the same compound, the “fluorescence turn-on (flow cytometry)” value (NS1 cells; NS1, 0.25 mM FA) was 42%, the “fluorescence turn-on (flow cytometry)” value (NS1 cells; NS1, 0.5 mM FA) was 50% and the “fold increase by flow cytometry” value (NS1 cells; NS1, 5 mM FA) was 4.2 fold. The “fold fluorescence increase (time-lapse imaging)” value ([2]; NS1, 1 μM FP1, on-stage addition of 1 mM FA at 25° C., 2 hrs) was 1.3 fold, the “fold increase in fluorescence intensity (confocal)” value (from here on “fold increase … (confocal)”) ([2]; NS1, 2 μM FP1, 1 mM FA, 1 hr) was 0 fold and the “fold increase … (confocal)” value ([2]; NS1, 2 μM FP1, 1 mM FA, 2 hrs) was 1.1 fold. The “fold increase … (confocal)” value ([2]; NS1, 2 μM FP1, 1 mM FA, 3 hrs) was 1.6 fold, the “fold increase … (confocal)” value ([2]; NS1, 2 μM FP1, 2.5 mM FA, 1 hr) was 1.3 fold and the “fold increase … (confocal)” value ([2]; NS1, 2 μM FP1, 2.5 mM FA, 2 hrs) was 1.5 fold. For the same compound, the “fold increase … (confocal)” value ([2]; NS1, 2 μM FP1, 2.5 mM FA, 3 hrs) was 2.0 fold, the “fold increase … (confocal)” value ([2]; NS1, 2 μM FP1, 5 mM FA, 1 hr) was 1.8 fold and the “fold increase … (confocal)” value ([2]; NS1, 2 μM FP1, 5 mM FA, 2 hrs) was 2.0 fold. For the same compound, the “fluorescence increase (confocal)” value ([2]; NS1, 0.25 mM FA, 37° C., 3 hrs) was 16% and the “signal enhancement (confocal)” value ([2]; NS1, 0.5 mM FA, 37° C., 3 hrs) was 38%.
